From US20050197331A1, “Novel anti-inflammatory and analgesic heterocyclic amidines that inhibit nitrogen oxide (NO) production” (ROTTAPHARM SPA, priority 2004, published 2005) come the findings set out here.

Counter-ions that a name gives are not always drawn. Like-named read-outs stand apart in the source and are kept apart here.

Data set [1] has as its system formation of NO measured as NO2^− (nitrite). The data set can be described thus: Inhibition of NO (nitrite) formation in rabbit articular chondrocytes stimulated with IL-1β. Format: cell-based. The note with it: for IC50: Oryctolagus cuniculus, Chondrocyte. How it is done: (§1) a) The inhibitory activity on the formation of NO measured as NO2^− (nitrite) and PGE2 was studied in vitro on culture media of rabbit articular chondrocytes stimulated with the cytokine IL-1β (1 ng/ml) for 48 hours. For the preparation of the chondrocytes, the method described by Berenbaum et al. [FEBS Letters 340, 51-55 (1994)] was followed. Briefly, fragments of cartilage removed aseptically from the articular heads of rabbit shoulder, hip and knee were finely ground and digested at 37° C. in hyaluronidase, trypsin and collagenase solutions, giving, after filtration through sterile gauze and centrifugation at 600×g and suitable dilution with 10% DMEM-FCS 10%, a concentration per well of about 1×10^5 cells. The cells were maintained under these conditions until confluent (about 15 days), the medium being replaced every 3 days. At this point, the test products dissolved in the medium were added to each sample and, after 20 minutes, 350 μl of IL-1β were added, to give a final concentration of 1 ng/ml. The stimulation lasted 48 hours at 37° C. (incubation in air/7% CO2). A nitrite assay was subsequently performed on the cell supernatant, as described by Green et al. [Anal. Biochem. 126, 131-138 (1982)], and of PGE2 by RIA assay. The results obtained are shown in Table 3, in which is given, for a number of the compounds that are the subject of the invention and that are already illustrated in Table 1, the IC50, i.e. the concentration (micromolar) of antagonist capable of inhibiting the formation of nitrites and PGE2 by 50% relative to the control group, i.e. relative to the cells stimulated with IL-1β but without addition of antagonists.

In data set [2] the test system is PGE2. Description: Inhibition of PGE2 formation in rabbit articular chondrocytes stimulated with IL-1β (RIA). Type of data set: cell-based. How it is done: as §1
[3] abbreviates: rabbit articular chondrocytes, IL-1β 1 ng/ml, 48 hours, nitrite in supernatant, read-out: Inhibition % IC50 NO.
Setting [4] is: Oryctolagus cuniculus, Chondrocyte, rabbit articular chondrocytes, IL-1β 1 ng/ml, 48 hours, RIA, read-out: Inhibition % IC50 PGE2.
[5] abbreviates: rabbit articular chondrocytes stimulated with IL-1β.
[6] abbreviates: Oryctolagus cuniculus, Chondrocyte, rabbit articular chondrocytes stimulated with IL-1β, read-out: IC50, formation of PGE2.
The mark [7] stands for this setting: rabbit articular chondrocytes, IL-1β 1 ng/ml, 48 hours, RIA.

`CC(=N)Nc1ccc2[nH]c(-c3cccc(C(F)(F)F)c3)nc2c1` (as salt: hydrobromid) [Compound 36, N-[2-(3-trifluoromethylphenyl)benzimidazole-5-yl]acetamidine hydrobromide]: the melting point (in general, the temperature, or range, at which the solid turns liquid) lay in the range of 284.3 to 285.4 °C.

In turn, `CC(=N)Nc1ccc2[nH]c(-c3ccccc3F)nc2c1` (as salt: hydrobromid) [Compound 38, N-[2-(2-fluorophenyl)benzimidazol-5-yl]acetamidine hydrobromide] returned a melting point of 266.8 to 269 °C.

Turning to `COc1ccc(S(N)(=O)=O)cc1-c1nc2cc(NC(C)=N)ccc2s1` (as salt: hydrochloride) [Compound 13, N-[2-(5-aminosulfonyl-2-methoxyphenyl)benzothiazol-5-yl]acetamidine hydrochloride], the melting point fell in the range of 244 to 248 °C.

On to `CC(=N)Nc1ccc2[nH]c(-c3ccc(F)cc3)nc2c1` (as salt: hydrochloride) [Compound 19, N-[2-(4-fluorophenyl)benzimidazol-5-yl]acetamidine dihydrochloride], for which the melting point was in the range of 283.7 to 286.3 °C.

In turn, `CC(=N)Nc1ccc2[nH]c(-c3ccccc3)nc2c1` (as salt: hydrochloride) [Compound 21, N-(2-phenyl-3H-benzimidazol-5-yl)acetamidine hydrochloride] registered a melting point of 164 to 166 °C.

Turning to `CCCCCc1nc2ccc(NC(C)=N)cc2[nH]1` (as salt: hydrochloride) [Compound 22, N-(2-pentyl-3H-benzimidazol-5-yl)acetamidine dihydrochloride], the melting point fell in the range of 276.9 to 278.3 °C.

For `CC(=N)Nc1ccc2[nH]c(-c3ccc[nH]3)nc2c1` (as salt: hydrochloride) [Compound 23, N-[2-(pyrrol-2-yl)-3H-benzimidazol-5-yl]acetamidine dihydrochloride], the melting point is 318 to 322 °C.

Molecule `COC(=O)c1ccc(-c2nc3cc(NC(C)=N)ccc3[nH]2)cc1` (as salt: hydrochloride) [Compound 25, Methyl 4-(5-acetimidoylamino-1H-benzimidazol-2-yl)benzoate hydrochloride] yielded a melting point of 284 to 288 °C.

For `CC(=N)Nc1ccc2nc(-c3ccccc3)ncc2c1` (as salt: hydrochloride) [Compound 27, N-(2-phenylquinazolin-6-yl)acetamidine dihydrochloride], the melting point was 162 to 168 °C.

Turning to `COc1ccccc1-c1nc2cc(NC(C)=N)ccc2n1C` (as salt: hydrochloride) [Compound 43, N-[1-methyl-2-(2-methoxyphenyl)benzimidazol-5-yl]acetamidine dihydrochloride], the melting point was 253.1 to 254.7 °C.

For `CCCCCc1nc2ccc(NC(C)=N)cc2s1` [Compound 4, N-(2-pentylbenzothiazol-6-yl)acetamidine], the melting point lay in the range of 112.6 to 114.7 °C. Further, the IC50 (commonly the concentration needed to halve the response being measured) in data set [1] (rabbit articular chondrocytes stimulated with IL-1β, read-out: IC50, production of NO) is 3 to 8 µM. In data set [1] (setting [3]), the half-maximal inhibitory concentration (IC50) was found to be 6.9 µM. Further, the IC50 in data set [2] (setting [4]) is 6.6 µM.

On to `CC(=N)Nc1ccc2sc(Cc3ccccc3)nc2c1` [Compound 11, N-[2-benzylbenzothiazol-5-yl]acetamidine], for which the melting point lay in the range of 117.9 to 120 °C. The IC50 in data set [1] (setting [3]) amounted to 15 µM. In addition, in data set [2] (setting [4]), the IC50 was 7.4 µM.

With `CC(=N)Nc1ccc2sc(/C=C/c3ccccc3)nc2c1` [Compound 12, N-[2-styrylbenzothiazol-5-yl]acetamidine], the melting point fell in the range of 90.8 to 91.8 °C. Further, in data set [1] (setting [3]), the IC50 amounted to 88.9 µM. The “inhibiting the production of NO (in words)” value in data set [1] (setting [5]) was “little activity”. For the same molecule, in data set [2] (setting [4]), the IC50 amounted to 1.3 µM. Moreover, the “IC50, formation of PGE2” value in data set [2] (setting [5]) is “sub-micromolar”.

For the molecule `COc1ccc(S(N)(=O)=O)cc1-c1nc2cc(NC(C)=N)ccc2s1` [Compound 13, N-[2-(5-aminosulfonyl-2-methoxyphenyl)benzothiazol-5-yl]acetamidine hydrochloride], the IC50 in data set [2] (setting [4]) stood at 16.2 µM.

`CC(=N)Nc1ccc2sc(-c3ccccn3)nc2c1` [Compound 14, N-[2-(2-pyridyl)benzothiazol-5-yl]acetamidine]: the melting point lay in the range of 187.2 to 188.9 °C. For the same molecule, the IC50 in data set [2] (setting [4]) was determined as 42.5 µM.

On to `CC(=N)Nc1ccc2[nH]c(-c3ccc(F)cc3)nc2c1` [Compound 19, N-[2-(4-fluorophenyl)benzimidazol-5-yl]acetamidine dihydrochloride], for which the 50% inhibitory concentration (IC50) is 78 µM in data set [1] (setting [3]), 0.3 to 0.8 µM in data set [2] (setting [6]) and 0.7 µM in data set [2] (setting [4]). Moreover, in data set [1] (setting [5]), the “inhibiting the production of NO (in words)” value is on record as “little activity”. Moreover, the “IC50, formation of PGE2” value in data set [2] (setting [5]) was “sub-micromolar”.

`CC(=N)Nc1ccc2[nH]c(-c3ccc(Cl)cc3)nc2c1` [Compound 20, N-[2-(4-chlorophenyl)benzimidazol-5-yl]acetamidine] displayed a melting point of 153.6 to 156 °C. For the same molecule, the IC50 in data set [1] (setting [3]) worked out at 22.8 µM. For the same molecule, the “inhibiting the production of NO (in words)” value in data set [1] (setting [5]) is recorded as “little activity”. Also, the IC50 in data set [2] (setting [6]) was in the range of 0.3 to 0.8 µM. In addition, the IC50 in data set [2] (setting [4]) amounted to 0.4 µM. Moreover, in data set [2] (setting [5]), the “IC50, formation of PGE2” value is recorded as “sub-micromolar”.

With `CC(=N)Nc1ccc2[nH]c(-c3ccccc3)nc2c1` [Compound 21, N-(2-phenyl-3H-benzimidazol-5-yl)acetamidine hydrochloride], the IC50 is 84.5 µM in data set [1] (setting [3]), 0.3 to 0.8 µM in data set [2] (setting [6]) and 0.8 µM in data set [2] (setting [4]). Besides, the “inhibiting the production of NO (in words)” value in data set [1] (setting [5]) is given as “little activity”. Also, the “IC50, formation of PGE2” value in data set [2] (setting [5]) is listed as “sub-micromolar”.

Regarding `CCCCCc1nc2ccc(NC(C)=N)cc2[nH]1` [Compound 22, N-(2-pentyl-3H-benzimidazol-5-yl)acetamidine dihydrochloride], the figures for the IC50 in data set [1] (setting [3]) and in data set [2] (setting [4]) were 123 µM and 31.5 µM, respectively.

With `CC(=N)Nc1ccc2[nH]c(-c3ccc[nH]3)nc2c1` [Compound 23, N-[2-(pyrrol-2-yl)-3H-benzimidazol-5-yl]acetamidine dihydrochloride], the figures for the IC50 in data set [1] (setting [3]) and in data set [2] (setting [4]) were 250 µM and 2 µM, respectively.

Take `Br.CC(=N)Nc1ccc2nc(-c3ccc[nH]3)[nH]c2c1` [Compound 24, N-[2-(pyrrol-2-yl)-3H-benzimidazol-5-yl]acetamidine hydrobromide]: the melting point was in the range of 197 to 199 °C.

In the case of `COC(=O)c1ccc(-c2nc3cc(NC(C)=N)ccc3[nH]2)cc1` [Compound 25, Methyl 4-(5-acetimidoylamino-1H-benzimidazol-2-yl)benzoate hydrochloride], the IC50 in data set [1] (setting [3]) worked out at 174 µM. For the same molecule, in data set [2] (setting [7]), the “Inhibition % IC50 PGE2” value is recorded as “IN (IN = <25% inhibitory activity at 30 × 10^−6M)”.

`CC(=N)Nc1ccc2[nH]c(-c3ccc(C(=O)O)cc3)nc2c1` [Compound 26, 4-(5-acetimidoylamino-1H-benzimidazol-2-yl)benzoic acid] registered a melting point of 271.5 to 274.3 °C. In data set [2] (setting [7]), the “Inhibition % IC50 PGE2” value is recorded as “IN (IN = <25% inhibitory activity at 30 × 10^−6M)”.

The molecule `CC(=N)Nc1ccc2oc(-c3cccc(C(F)(F)F)c3)nc2c1` [Compound 31, N-[2-(3-trifluromethylphenyl)benzoxazol-5-yl]acetamidine] displayed a melting point of 157.9 to 159.2 °C. For the same molecule, the IC50 in data set [1] (setting [3]) was 11.2 µM. The IC50 in data set [2] (setting [4]) is 2.9 µM.

With `CC(=N)Nc1ccc2[nH]c(-c3cccc(C(F)(F)F)c3)nc2c1` [Compound 36, N-[2-(3-trifluoromethylphenyl)benzimidazole-5-yl]acetamidine hydrobromide], in data set [2] (setting [7]), the “Inhibition % IC50 PGE2” value was “IN (IN = <25% inhibitory activity at 30 × 10^−6M)”.

`CC(=N)Nc1ccc2[nH]c(-c3ccccc3F)nc2c1` [Compound 38, N-[2-(2-fluorophenyl)benzimidazol-5-yl]acetamidine hydrobromide]: the “Inhibition % IC50 PGE2” value in data set [2] (setting [7]) is on record as “IN (IN = <25% inhibitory activity at 30 × 10^−6M)”.

For the molecule `CC(=N)Nc1ccc2sc(-c3ccc[nH]3)nc2c1` [Compound 40, N-[2-(pyrrol-2-yl)benzothiazol-5-yl]acetamidine], the melting point lay within 166.7 to 169.1 °C. The IC50 in data set [2] (setting [4]) was 8.4 µM.

Regarding `COc1ccccc1-c1[nH]c2ccc(NC(C)=N)cc2[n+]1C` [Compound 44, N-[1-methyl-2-(2-methoxyphenyl)benzimidazol-6-yl]acetamidine], the melting point is 205.6 to 207.1 °C.

As for “N-[2-phenylbenzothiazol-5-yl]cyclopropylcarboxamidine [Compound 41]”, the “Inhibition % IC50 NO” value in data set [1] (rabbit articular chondrocytes, IL-1β 1 ng/ml, 48 hours, nitrite in supernatant) is recorded as “IN (IN = <25% inhibitory activity at 30 × 10^−6M)”. The IC50 in data set [2] (rabbit articular chondrocytes, IL-1β 1 ng/ml, 48 hours, RIA, read-out: Inhibition % IC50 PGE2) was determined as 4 µM.
